In patent US10117848B2, “Highly water-soluble salts of a short acting phenylalkylamine calcium channel blocker and uses thereof” (Milestone Pharmaceuticals Inc., priority 2015, dated 2018):
One block for each compound: values may come before it.

Tests used:
[1] = Solubility in aqueous solution; format: physicochemical; settings: acid addition salts of compound I
[2] = tested on: patients suffering from an episode of PSVT; assay: Nasal administration of acetate salt solutions to patients in a PSVT episode, monitored by electrocardiography; format: in vivo, human
Text: A common method of measuring the effectiveness of a therapeutic agent in terminating an episode of a cardiac arrhythmia, such as PSVT, is by analysis of an electrocardiogram (ECG) recorded from a patient experiencing such an episode. […] One of the key features of healthy cardiac signaling is a temporal delay between the initiation of atrial and ventricular action potentials. A delay between signaling in the atria and ventricles is necessary for efficient pumping of blood. Signaling in the atria must proceed first, such that all blood in the atrial chambers is expelled into the ventricles before the ventricles contract. […]
It has been shown that an increase of at least 10% in the PR segment of an […] recorded from a patient suffering from a cardiac arrhythmia correlates well with a termination of the PSVT episode. […] The solutions that were administered to patients contained varying concentrations of the acetate salt of compound I. During the study, a solution containing a particular concentration of the acetate salt of compound I was administered to a patient experiencing an episode of PSVT, and the patient was monitored by electrocardiography throughout the duration of the experiment. […]

[3] = tested on: nasal epithelium; assay: Permeation through the nasal epithelium with EDTA; settings: use of EDTA in the formulation
Text: The nasal vestibule, which accounts for approximately 3-4% of the surface area of the nasal cavity, lacks tight junctions altogether and is thus not affected by calcium chelating agents. […] As such, it has been postulated that the nasal epithelium is not susceptible to permeability modulation by EDTA (Aungst, et al., Pharma. Res., 1998, 5:305-308). Additionally, the ability of EDTA to increase permeation of a compound through the nasal epithelium is attenuated as the molecular weight of the compound increases (Nakanishi, et al., Chem. Pharm. Bull., 1984, 32:1628-1632).

[4] = Homogeneity (no observable precipitation) of concentrated aqueous solutions on storage; format: physicochemical
[5] = tested on: patients suffering from an episode of PSVT; settings: therapeutic dose, intravenous; cited from earlier work
[6] = tested on: patients treated for an episode of PSVT; settings: intravenous; cited from earlier work
[7] = 300 mg/mL, 1 eq methanesulfonic acid, 10 mM sodium acetate, 5 mM disodium EDTA, pH 4.5
[8] = 350 mg/mL, 1 eq acetic acid, pH 4.5 with 3.6 M sulfuric acid
[9] = 400 mg/mL, 1 eq methanesulfonic acid, 10 mM sodium acetate, 5 mM disodium EDTA, pH 4.5

- solubility in aqueous solution [1]: high solubility
SMILES: CC(=O)O.COC(=O)c1cccc(CCN(C)CCC[C@@](C#N)(c2ccc(OC)c(OC)c2)C(C)C)c1 [acetate salt of compound I]
- median PR prolongation ([2]; solutions containing 60 mg or greater of compound I, patients experiencing a PSVT episode, ECG): greater than 10%

- permeation through the nasal epithelium [3]: increased the permeation
- homogeneity at 2-5° C. [4, 7]: remains homogeneous
- homogeneity at room temperature [4, 7]: remains homogeneous
- time solution remains homogeneous at 0° C. [4, 7]: at least 7 days
- homogeneity at room temperature [4, 8]: remains homogeneous
- time solution remains homogeneous at 10° C. [4, 8]: at least 3 days
- homogeneity at 2-5° C. [4, 9]: remains homogeneous
- homogeneity at room temperature [4, 9]: remains homogeneous
- time solution remains homogeneous at 0° C. [4, 9]: at least 7 days
- homogeneity at room temperature ([4]; highly concentrated solutions, 0.5-1.5 molar equivalents of acetic acid or methanesulfonic acid): remain homogeneous
- homogeneity at room temperature ([4]; over 500 mg/mL, 1 eq acetic acid, pH 4.5 with 3.6 M sulfuric acid): remains homogeneous
SMILES: COC(=O)c1cccc(CCN(C)CCCC(C#N)(c2ccc(OC)c(OC)c2)C(C)C)c1 (stereo not shown) [compound I, methyl 3-(2-((4-cyano-4-(3,4-dimethoxyphenyl)-5-methylhexyl)(methyl)amino)ethyl)benzoate]
- effectiveness in terminating an episode of PSVT ([2]; dosage containing 60 mg of compound I): therapeutically effective

SMILES: COc1ccc(CCN(C)CCCC(C#N)(c2ccc(OC)c(OC)c2)C(C)C)cc1OC (stereo not shown) [verapamil, 2-(3,4-dimethoxyphenyl)-5-[2-(3,4-dimethoxyphenyl)ethyl-methylamino]-2-propan-2-ylpentanenitrile]
- PR prolongation [5]: at least 10%
- efficacy for terminating the PSVT episode [5]: 85-90%

SMILES: OC[C@H]1O[C@@H](n2cnc3c(N[C@@H]4CCOC4)ncnc32)[C@H](O)[C@@H]1O [tecadenoson]
- average PR prolongation [6]: 8.5%
- efficacy of PSVT termination [6]: approximately 86%
- patients treated who experienced relief from an episode of PSVT [6]: 32 out of 37
